Laboratory results reported in patent US20100267561A1, “HERBICIDAL PYRIDAZINONE DERIVATIVES” (priority 2007, published 2010).

Tests used:
Assay type in all cases: in vivo
[1] = test system: pigweed (Amaranthus retroflexus); test: Test A pre-/postemergence plant response
Method in brief: (§1)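 Seeds in loam soil/sand blend treated preemergence by directed soil spray, with simultaneous postemergence spray on 2–10 cm plants at one- to two-leaf stage; compounds in non-phytotoxic solvent with surfactant. Injury visually rated versus untreated controls after about 10 days in greenhouse, 0 (no effect) to 100 (complete control).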

[2] = test system: large crabgrass (Digitaria sanguinalis); test: Test A pre-/postemergence plant response
Method in brief: as §1

[3] = test system: wheat (Triticum aestivum); test: Test A pre-/postemergence plant response
Method in brief: as §1

[4] = test system: morningglory (Ipomoea coccinea); test: Test A pre-/postemergence plant response
Method in brief: as §1

[5] = test system: velvetleaf (Abutilon theophrasti); test: Test A pre-/postemergence plant response
Method in brief: as §1

[6] = test system: barnyardgrass (Echinochloa crus-galli); test: Test A pre-/postemergence plant response
Method in brief: as §1

[7] = test system: windgrass (Apera spica-venti); test: Test B postemergence plant response; details: for Windgrass plant response rating: 8 g ai/ha, postemergence, 0-100 scale; for Plant response rating, Windgrass: Postemergence
Method in brief: (§2)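 Postemergence greenhouse test; plants at 2 to 18 cm (1- to 4-leaf stage) given formulated test chemical, held 13 to 15 days, then visually rated against untreated controls on a 0 (no effect) to 100 (complete control) scale; dash means no result.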

[8] = test system: winter barley (Hordeum vulgare); test: Test B postemergence plant response; details: for Barley plant response rating: 8 g ai/ha, postemergence, 0-100 scale; for Plant response rating, Barley: Postemergence, scale 0 to 100, 0 no effect, 100 complete control
Method in brief: as §2

[9] = test system: chickweed (Stellaria media); test: Test B postemergence plant response; details: for Chickweed plant response rating: 8 g ai/ha, postemergence, 0-100 scale; for Plant response rating, Chickweed: Postemergence
Method in brief: as §2

[10] = test system: canarygrass (Phalaris minor); test: Test B postemergence plant response; details: for Canarygrass plant response rating: 8 g ai/ha, postemergence, 0-100 scale; for Plant response rating, Canarygrass: Postemergence
Method in brief: as §2

[11] = test system: umbrella sedge (Cyperus difformis); test: Test B flooded paddy test plant response
Method in brief: (§3)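 Step one: raise plants to 2 leaves. Step two: flood pots 3 cm over the soil and apply compound into the water, keeping this depth. Step three: after 13–15 greenhouse days, score visually versus controls, 0–100, where 100 means complete control.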

rice (Oryza sativa) = test: Test B flooded paddy test plant response
Method in brief: as §3

[12] = test system: barnyardgrass (Echinochloa crus-galli); test: Test B flooded paddy test plant response
Method in brief: as §3

[13] = test system: ducksalad (Heteranthera limosa); test: Test B flooded paddy test plant response
Method in brief: as §3

[14] = Postemergence, 31 g ai/ha, 0 to 100 scale, 0 no effect, 100 complete control
[15] = Postemergence, 125 g ai/ha, 0 to 100 scale, 0 no effect, 100 complete control
[16] = Preemergence, 31 g ai/ha, 0 to 100 scale, 0 is no effect, 100 is complete control
[17] = Preemergence, 125 g ai/ha, 0 to 100 scale (0 no effect, 100 complete control)
[18] = 62 g ai/ha, scale 0 to 100, 0 no effect, 100 complete control
[19] = 31 g ai/ha, scale 0 to 100, 0 no effect, 100 complete control
[20] = Flood (flooded paddy test), 62 g ai/ha, scale 0 to 100, 0 no effect, 100 complete control
[21] = Flood (flooded paddy test), 125 g ai/ha, scale 0 to 100, 0 no effect, 100 complete control
[22] = Flood (flooded paddy test), 250 g ai/ha, scale 0 to 100, 0 no effect, 100 complete control
[23] = Flood, 31 g ai/ha, scale 0 to 100

## Cc1cc(-c2ccc(Cl)cc2)nn1-c1c(OC(=O)CC(C)C)cnn(C)c1=O [Compound 37]
[1]; [14]
  Plant response rating, Pigweed: 0
[1]; [15]
  Plant response rating, Pigweed: 0
[1]; [16]
  Plant response rating, Pigweed: 0
[1]; [17]
  Plant response rating, Pigweed: 0
[2]; [14]
  Plant response rating, Crabgrass, Large: 50
[2]; [15]
  Plant response rating, Crabgrass, Large: 90
[2]; [16]
  Plant response rating, Crabgrass, Large: 80
[2]; [17]
  Plant response rating, Crabgrass, Large: 100
[3]; [14]
  Plant response rating, Wheat: 20
[3]; [15]
  Plant response rating, Wheat: 70
[3]; [16]
  Plant response rating, Wheat: 30
[3]; [17]
  Plant response rating, Wheat: 90
[4]; [14]
  Plant response rating, Morningglory: 0
[4]; [15]
  Plant response rating, Morningglory: 0
[4]; [16]
  Plant response rating, Morningglory: 0
[4]; [17]
  Plant response rating, Morningglory: 0
[5]; [14]
  Plant response rating, Velvetleaf: 0
[5]; [15]
  Plant response rating, Velvetleaf: 0
[5]; [16]
  Plant response rating, Velvetleaf: 0
[5]; [17]
  Plant response rating, Velvetleaf: 0
[6]; [14]
  Plant response rating, Barnyardgrass: 90
[6]; [15]
  Plant response rating, Barnyardgrass: 100
[6]; [16]
  Plant response rating, Barnyardgrass: 90
[6]; [17]
  Plant response rating, Barnyardgrass: 100
[7]
  Windgrass plant response rating: 10
[7]; 16 g ai/ha, scale 0 to 100
  Plant response rating, Windgrass: 60
[7]; [18]
  Plant response rating, Windgrass: 85
[8]
  Barley plant response rating: 0
[8]; 16 g ai/ha
  Plant response rating, Barley: 0
[8]; 31 g ai/ha
  Plant response rating, Barley: 5
[8]; 62 g ai/ha
  Plant response rating, Barley: 15
[9]
  Chickweed plant response rating: 0
[9]; 16 g ai/ha, scale 0 to 100
  Plant response rating, Chickweed: 0
[9]; [19]
  Plant response rating, Chickweed: 0
[9]; [18]
  Plant response rating, Chickweed: 0
[10]
  Canarygrass plant response rating: 0
[10]; 16 g ai/ha, scale 0 to 100
  Plant response rating, Canarygrass: 10
[10]; [19]
  Plant response rating, Canarygrass: 10
[10]; [18]
  Plant response rating, Canarygrass: 40
[11]; [20]
  Plant response rating, Sedge, Umbrella: 0
[11]; [21]
  Plant response rating, Sedge, Umbrella: 0
[11]; [22]
  Plant response rating, Sedge, Umbrella: 60
Rice (Oryza sativa); [20]
  Plant response rating, Rice: 70
Rice (Oryza sativa); [21]
  Plant response rating, Rice: 80
Rice (Oryza sativa); [22]
  Plant response rating, Rice: 90
Rice (Oryza sativa); [23]
  Plant response rating, Rice: 0
[12]; [20]
  Plant response rating, Barnyardgrass: 60
[12]; [21]
  Plant response rating, Barnyardgrass: 100
[12]; [22]
  Plant response rating, Barnyardgrass: 100
[12]; [23]
  Plant response rating, Barnyardgrass: 30
[13]; [20]
  Plant response rating, Ducksalad: 70
[13]; [21]
  Plant response rating, Ducksalad: 70
[13]; [22]
  Plant response rating, Ducksalad: 75

## Cc1cc(-c2ccc(Cl)cc2)nn1-c1c(OC(=O)c2ccccc2Cl)cnn(C)c1=O [Compound 38]
[1]; [14]
  Plant response rating, Pigweed: 0
[1]; [15]
  Plant response rating, Pigweed: 0
[1]; [16]
  Plant response rating, Pigweed: 0
[1]; [17]
  Plant response rating, Pigweed: 0
[2]; [14]
  Plant response rating, Crabgrass, Large: 40
[2]; [15]
  Plant response rating, Crabgrass, Large: 100
[2]; [16]
  Plant response rating, Crabgrass, Large: 90
[2]; [17]
  Plant response rating, Crabgrass, Large: 100
[3]; [14]
  Plant response rating, Wheat: 0
[3]; [15]
  Plant response rating, Wheat: 60
[3]; [16]
  Plant response rating, Wheat: 20
[3]; [17]
  Plant response rating, Wheat: 60
[4]; [14]
  Plant response rating, Morningglory: 0
[4]; [15]
  Plant response rating, Morningglory: 0
[4]; [16]
  Plant response rating, Morningglory: 0
[4]; [17]
  Plant response rating, Morningglory: 0
[5]; [14]
  Plant response rating, Velvetleaf: 0
[5]; [15]
  Plant response rating, Velvetleaf: 0
[5]; [16]
  Plant response rating, Velvetleaf: 0
[5]; [17]
  Plant response rating, Velvetleaf: 0
[6]; [14]
  Plant response rating, Barnyardgrass: 40
[6]; [15]
  Plant response rating, Barnyardgrass: 100
[6]; [16]
  Plant response rating, Barnyardgrass: 90
[6]; [17]
  Plant response rating, Barnyardgrass: 100
[7]
  Windgrass plant response rating: 0
[7]; 16 g ai/ha, scale 0 to 100
  Plant response rating, Windgrass: 0
[7]; [18]
  Plant response rating, Windgrass: 80
[8]
  Barley plant response rating: 0
[8]; 16 g ai/ha
  Plant response rating, Barley: 0
[8]; 31 g ai/ha
  Plant response rating, Barley: 10
[8]; 62 g ai/ha
  Plant response rating, Barley: 10
[9]
  Chickweed plant response rating: 0
[9]; 16 g ai/ha, scale 0 to 100
  Plant response rating, Chickweed: 0
[9]; [19]
  Plant response rating, Chickweed: 0
[9]; [18]
  Plant response rating, Chickweed: 0
[10]
  Canarygrass plant response rating: 0
[10]; 16 g ai/ha, scale 0 to 100
  Plant response rating, Canarygrass: 0
[10]; [19]
  Plant response rating, Canarygrass: 10
[10]; [18]
  Plant response rating, Canarygrass: 30
[11]; [21]
  Plant response rating, Sedge, Umbrella: 70
[11]; [22]
  Plant response rating, Sedge, Umbrella: 70
[11]; [23]
  Plant response rating, Sedge, Umbrella: 20
Rice (Oryza sativa); [20]
  Plant response rating, Rice: 75
Rice (Oryza sativa); [21]
  Plant response rating, Rice: 75
Rice (Oryza sativa); [22]
  Plant response rating, Rice: 85
Rice (Oryza sativa); [23]
  Plant response rating, Rice: 0
[12]; [20]
  Plant response rating, Barnyardgrass: 95
[12]; [21]
  Plant response rating, Barnyardgrass: 95
[12]; [22]
  Plant response rating, Barnyardgrass: 95
[12]; [23]
  Plant response rating, Barnyardgrass: 20
[13]; [21]
  Plant response rating, Ducksalad: 30
[13]; [22]
  Plant response rating, Ducksalad: 40
[13]; [23]
  Plant response rating, Ducksalad: 40

## CCCc1cc(-c2ccc(Cl)cc2)nn1-c1c(O)cnn(C)c1=O [Compound 43]
[1]; [14]
  Plant response rating, Pigweed: 0
[1]; [15]
  Plant response rating, Pigweed: 0
[1]; [16]
  Plant response rating, Pigweed: 0
[1]; [17]
  Plant response rating, Pigweed: 0
[2]; [14]
  Plant response rating, Crabgrass, Large: 40
[2]; [15]
  Plant response rating, Crabgrass, Large: 90
[2]; [16]
  Plant response rating, Crabgrass, Large: 10
[2]; [17]
  Plant response rating, Crabgrass, Large: 90
[3]; [14]
  Plant response rating, Wheat: 40
[3]; [15]
  Plant response rating, Wheat: 80
[3]; [16]
  Plant response rating, Wheat: 20
[3]; [17]
  Plant response rating, Wheat: 70
[4]; [14]
  Plant response rating, Morningglory: 0
[4]; [15]
  Plant response rating, Morningglory: 0
[4]; [16]
  Plant response rating, Morningglory: 0
[4]; [17]
  Plant response rating, Morningglory: 0
[5]; [14]
  Plant response rating, Velvetleaf: 0
[5]; [15]
  Plant response rating, Velvetleaf: 0
[5]; [16]
  Plant response rating, Velvetleaf: 0
[5]; [17]
  Plant response rating, Velvetleaf: 0
[6]; [14]
  Plant response rating, Barnyardgrass: 90
[6]; [15]
  Plant response rating, Barnyardgrass: 100
[6]; [16]
  Plant response rating, Barnyardgrass: 100
[6]; [17]
  Plant response rating, Barnyardgrass: 100
[7]
  Windgrass plant response rating: 50
[7]; 16 g ai/ha, scale 0 to 100
  Plant response rating, Windgrass: 70
[7]; [18]
  Plant response rating, Windgrass: 100
[8]
  Barley plant response rating: 20
[8]; 16 g ai/ha
  Plant response rating, Barley: 50
[8]; 62 g ai/ha
  Plant response rating, Barley: 50
[9]
  Chickweed plant response rating: 0
[9]; 16 g ai/ha, scale 0 to 100
  Plant response rating, Chickweed: 0
[9]; [19]
  Plant response rating, Chickweed: 0
[9]; [18]
  Plant response rating, Chickweed: 0
[10]
  Canarygrass plant response rating: 30
[10]; 16 g ai/ha, scale 0 to 100
  Plant response rating, Canarygrass: 50
[10]; [19]
  Plant response rating, Canarygrass: 50
[10]; [18]
  Plant response rating, Canarygrass: 95
[11]; [20]
  Plant response rating, Sedge, Umbrella: 0
[11]; [21]
  Plant response rating, Sedge, Umbrella: 0
[11]; [22]
  Plant response rating, Sedge, Umbrella: 0
[11]; [23]
  Plant response rating, Sedge, Umbrella: 0
Rice (Oryza sativa); [20]
  Plant response rating, Rice: 15
Rice (Oryza sativa); [21]
  Plant response rating, Rice: 20
Rice (Oryza sativa); [22]
  Plant response rating, Rice: 20
Rice (Oryza sativa); [23]
  Plant response rating, Rice: 0
[12]; [20]
  Plant response rating, Barnyardgrass: 50
[12]; [21]
  Plant response rating, Barnyardgrass: 75
[12]; [23]
  Plant response rating, Barnyardgrass: 40
[13]; [20]
  Plant response rating, Ducksalad: 0
[13]; [21]
  Plant response rating, Ducksalad: 0
[13]; [22]
  Plant response rating, Ducksalad: 30
[13]; [23]
  Plant response rating, Ducksalad: 0
